Reference: PubChem BioAssay (NCI)
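Assay format: 96-well plates, 48-hour exposure. GI50 marks 50% less growth. TGI is the concentration that stops growth completely.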

How the values were obtained:
Assay in all cases: DTP human tumour cell line panel, 48 h
786-0 renal = tested on: 786-0 renal
A498 renal = tested on: A498 renal
A549 NSCLC = tested on: A549 NSCLC
ACHN renal = tested on: ACHN renal
BT-549 breast = tested on: BT-549 breast
CAKI-1 renal = tested on: CAKI-1 renal
CCRF-CEM leukemia = tested on: CCRF-CEM leukemia
COLO 205 colon = tested on: COLO 205 colon
DU-145 prostate = tested on: DU-145 prostate
EKVX NSCLC = tested on: EKVX NSCLC
HCC-2998 colon = tested on: HCC-2998 colon
HCT-116 colon = tested on: HCT-116 colon
HCT-15 colon = tested on: HCT-15 colon
HL-60(TB) leukemia = tested on: HL-60(TB) leukemia
HOP-62 NSCLC = tested on: HOP-62 NSCLC
HOP-92 NSCLC = tested on: HOP-92 NSCLC
HS 578T breast = tested on: HS 578T breast
HT29 colon = tested on: HT29 colon
IGROV1 ovarian = tested on: IGROV1 ovarian
K-562 leukemia = tested on: K-562 leukemia
KM12 colon = tested on: KM12 colon
LOX IMVI melanoma = tested on: LOX IMVI melanoma
M14 melanoma = tested on: M14 melanoma
MALME-3M melanoma = tested on: MALME-3M melanoma
MCF7 breast = tested on: MCF7 breast
MDA-MB-231 breast = tested on: MDA-MB-231 breast
MDA-MB-435 = tested on: MDA-MB-435
MOLT-4 leukemia = tested on: MOLT-4 leukemia
NCI-H226 lung = tested on: NCI-H226 lung
NCI-H23 lung = tested on: NCI-H23 lung
NCI-H460 lung = tested on: NCI-H460 lung
NCI-H522 lung = tested on: NCI-H522 lung
NCI/ADR-RES ovarian = tested on: NCI/ADR-RES ovarian
OVCAR-3 ovarian = tested on: OVCAR-3 ovarian
OVCAR-4 ovarian = tested on: OVCAR-4 ovarian
OVCAR-5 ovarian = tested on: OVCAR-5 ovarian
OVCAR-8 ovarian = tested on: OVCAR-8 ovarian
PC-3 prostate = tested on: PC-3 prostate
RPMI-8226 leukemia = tested on: RPMI-8226 leukemia
RXF 393 renal = tested on: RXF 393 renal
SF-268 CNS = tested on: SF-268 CNS
SF-295 CNS = tested on: SF-295 CNS
SF-539 CNS = tested on: SF-539 CNS
SK-MEL-2 melanoma = tested on: SK-MEL-2 melanoma
SK-MEL-28 melanoma = tested on: SK-MEL-28 melanoma
SK-MEL-5 melanoma = tested on: SK-MEL-5 melanoma
SK-OV-3 ovarian = tested on: SK-OV-3 ovarian
SN12C renal = tested on: SN12C renal
SNB-19 CNS = tested on: SNB-19 CNS
SNB-75 CNS = tested on: SNB-75 CNS
SR leukemia = tested on: SR leukemia
SW-620 colon = tested on: SW-620 colon
T-47D breast = tested on: T-47D breast
TK-10 renal = tested on: TK-10 renal
U251 CNS = tested on: U251 CNS
UACC-257 melanoma = tested on: UACC-257 melanoma
UACC-62 melanoma = tested on: UACC-62 melanoma
UO-31 renal = tested on: UO-31 renal

## CCCNC(=S)N/N=C(\C)c1ccccn1
786-0 renal
  GI50: 959 nM
  TGI: > 26000 nM
A498 renal
  GI50: 435 nM
  TGI: 4830 nM
A549 NSCLC
  GI50: 447 nM
  TGI: > 100000 nM
ACHN renal
  GI50: 39.4 nM
  TGI: > 100000 nM
BT-549 breast
  GI50: 1440 nM
  TGI: > 100000 nM
CAKI-1 renal
  GI50: 220 nM
  TGI: > 80700 nM
CCRF-CEM leukemia
  GI50: 18 nM
  TGI: > 100000 nM
COLO 205 colon
  GI50: 40 nM
  TGI: > 100000 nM
DU-145 prostate
  GI50: 1100 nM
  TGI: > 42900 nM
EKVX NSCLC
  GI50: 119 nM
  TGI: > 100000 nM
HCC-2998 colon
  GI50: 523 nM
  TGI: > 100000 nM
HCT-116 colon
  GI50: < 10 nM
  TGI: > 100000 nM
HCT-15 colon
  GI50: 51.4 nM
  TGI: > 100000 nM
HL-60(TB) leukemia
  TGI: 333 nM
HOP-62 NSCLC
  GI50: 517 nM
  TGI: 17600 nM
HOP-92 NSCLC
  GI50: 115 nM
  TGI: > 100000 nM
HS 578T breast
  GI50: 1420 nM
  TGI: > 100000 nM
HT29 colon
  GI50: < 12.7 nM
  TGI: > 100000 nM
IGROV1 ovarian
  GI50: < 10 nM
  TGI: > 100000 nM
K-562 leukemia
  GI50: 15.3 nM
  TGI: > 100000 nM
KM12 colon
  GI50: 426 nM
  TGI: > 100000 nM
LOX IMVI melanoma
  GI50: 43.6 nM
  TGI: > 100000 nM
M14 melanoma
  GI50: 68.1 nM
  TGI: 3650 nM
MALME-3M melanoma
  GI50: 2110 nM
  TGI: > 100000 nM
MCF7 breast
  GI50: < 10 nM
MDA-MB-231 breast
  GI50: 75.7 nM
  TGI: > 100000 nM
MDA-MB-435
  GI50: 530 nM
  TGI: > 100000 nM
MOLT-4 leukemia
  GI50: 52.4 nM
  TGI: 816 nM
NCI-H226 lung
  GI50: 291 nM
  TGI: 4790 nM
NCI-H23 lung
  GI50: 22 nM
  TGI: > 100000 nM
NCI-H460 lung
  GI50: 242 nM
  TGI: 4920 nM
NCI-H522 lung
  GI50: 3220 nM
  TGI: > 100000 nM
NCI/ADR-RES ovarian
  GI50: 36.5 nM
  TGI: > 100000 nM
OVCAR-3 ovarian
  GI50: < 10 nM
  TGI: > 100000 nM
OVCAR-4 ovarian
  GI50: < 10 nM
  TGI: 44.1 nM
OVCAR-5 ovarian
  GI50: 529 nM
  TGI: > 100000 nM
OVCAR-8 ovarian
  GI50: 66.7 nM
  TGI: > 100000 nM
PC-3 prostate
  GI50: 47.1 nM
  TGI: > 100000 nM
RPMI-8226 leukemia
  GI50: 26.8 nM
  TGI: > 100000 nM
RXF 393 renal
  GI50: 847 nM
  TGI: 6550 nM
SF-268 CNS
  GI50: 226 nM
  TGI: > 51100 nM
SF-295 CNS
  GI50: 294 nM
  TGI: > 100000 nM
SF-539 CNS
  GI50: 847 nM
  TGI: > 30900 nM
SK-MEL-2 melanoma
  GI50: 3580 nM
  TGI: > 100000 nM
SK-MEL-28 melanoma
  GI50: 1980 nM
  TGI: > 100000 nM
SK-MEL-5 melanoma
  GI50: 213 nM
  TGI: 2550 nM
SK-OV-3 ovarian
  GI50: 615 nM
  TGI: > 100000 nM
SN12C renal
  GI50: 268 nM
  TGI: > 100000 nM
SNB-19 CNS
  GI50: 1810 nM
  TGI: > 100000 nM
SNB-75 CNS
  GI50: 1500 nM
  TGI: > 25700 nM
SR leukemia
  GI50: 51.7 nM
  TGI: 4370 nM
SW-620 colon
  GI50: 49.8 nM
  TGI: > 100000 nM
T-47D breast
  GI50: 27.4 nM
  TGI: > 100000 nM
TK-10 renal
  GI50: 710 nM
  TGI: > 100000 nM
U251 CNS
  GI50: 49.7 nM
  TGI: > 100000 nM
UACC-257 melanoma
  GI50: 38 nM
  TGI: 1380 nM
UACC-62 melanoma
  GI50: 192 nM
  TGI: 3280 nM
UO-31 renal
  GI50: 293 nM
  TGI: > 82800 nM
